Usually IC50 stands for the concentration needed to halve the response being measured. Higher therefore signals weaker potency.

Assay [1] addresses 20S proteasome chymotrypsin-like activity (CT-L) (Homo sapiens, UniProt P28074). Briefly: 20S proteasome chymotrypsin-like (CT-L) activity inhibition. The assay is classed as biochemical. From the text: As used herein, the term “inhibitor” is meant to describe a compound that blocks or reduces an activity of an enzyme (for example, inhibition of proteolytic cleavage of standard fluorogenic peptide substrates such as suc-LLVY-AMC, Box-LLR-AMC and Z-LLE-AMC, inhibition of various catalytic activities of the 20S proteasome). An inhibitor can act with competitive, uncompetitive, or noncompetitive inhibition. An inhibitor can bind reversibly or irreversibly, and therefore the term includes compounds that are suicide substrates of an enzyme. An inhibitor can modify one or more sites on or near the active site of the enzyme, or it can cause a conformational change elsewhere on the enzyme.
The chymotrypsin-like activity of 20S proteasome is characterized by cleavage of peptides in the immediate vicinity of large hydrophobic residues. In particular, the chymotrypsin-like activity of Ntn hydrolases can be determined by cleavage of a standard substrate. Examples of such substrates are known in the art. For example, a leucylvalinyltyrosine derivative can be used. Enzyme kinetic assays are disclosed in U.S. application Ser. No. 09/569748, Example 2 and Stein et al., Biochem. (1996), 35, 3899-3908.

In assay [2] the target is T1, Cell-based CT-L (proteasome chymotrypsin-like activity) (Homo sapiens, UniProt P28074).
T1 construct: endogenous in cells
T1 sequence (P28074 60-263): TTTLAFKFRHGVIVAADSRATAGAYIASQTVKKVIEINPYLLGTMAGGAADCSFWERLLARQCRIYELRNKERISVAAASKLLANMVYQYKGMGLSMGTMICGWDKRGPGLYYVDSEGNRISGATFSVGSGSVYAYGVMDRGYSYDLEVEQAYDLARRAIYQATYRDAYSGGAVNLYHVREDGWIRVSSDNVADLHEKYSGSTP
Briefly: Cell-based proteasome CT-L activity inhibition.

A value given as a limit tells only on which side of the number the result lay.

Regarding `CC(C)C[C@H](NC(=O)[C@H](CCc1ccccc1)NC(=O)CN1CCOCC1)C(=O)N[C@@H](Cc1ccc(F)cc1)C(=O)N[C@@H](CC(C)C)C(=O)[C@@]1(C)CO1` [Compound 9], the IC50 in assay [1] and in assay [2] was less than 50 nM throughout.
For the compound `CC(C)C[C@H](NC(=O)CN1CCOCC1)C(=O)N[C@@H](Cc1ccccc1)C(=O)N[C@@H](CC(C)C)C(=O)[C@@]1(C)CO1` [Compound 18], the IC50 in assay [1] and in assay [2] was less than 50 nM in each case.
As for `COc1ccc(NC(=O)N[C@@H](CC(C)C)C(=O)N[C@@H](Cc2ccccc2)C(=O)N[C@@H](CC(C)C)C(=O)[C@@]2(C)CO2)cc1` [Compound 17], the 50% inhibitory concentration (IC50) in assay [1] and in assay [2] was less than 50 nM in each case.
As to `CC(=O)N[C@@H](CCc1ccccc1)C(=O)N[C@@H](CC(C)C)C(=O)N[C@@H](CO)C(=O)N[C@@H](CC(C)C)C(=O)[C@@]1(C)CO1` [Compound 2], the 50% inhibitory concentration (IC50) in assay [1] was less than 50 nM; in assay [2], less than 500 nM.
Turning to `Cc1ccc(CCC(=O)N[C@@H](CC(C)C)C(=O)N[C@@H](Cc2ccccc2)C(=O)N[C@@H](CC(C)C)C(=O)[C@@]2(C)CO2)cc1` [Compound 8], the IC50 in assay [1] and in assay [2] was less than 50 nM each time.
Regarding `COc1ccc(NC(=S)N[C@@H](CC(C)C)C(=O)N[C@@H](Cc2ccccc2)C(=O)N[C@@H](CC(C)C)C(=O)[C@@]2(C)CO2)cc1` [Compound 16], the IC50 in assay [1] and in assay [2] was less than 50 nM throughout.
On to `CC(C)C[C@H](NC(=O)C1CCN(S(=O)(=O)c2cccs2)CC1)C(=O)N[C@@H](Cc1ccccc1)C(=O)N[C@@H](CC(C)C)C(=O)[C@@]1(C)CO1` [Compound 7], for which the IC50 in assay [1] and in assay [2] was less than 500 nM in each case.
`CC(C)C[C@H](NC(=O)c1ccccc1)C(=O)N[C@@H](Cc1ccccc1)C(=O)N[C@@H](CC(C)C)C(=O)[C@@]1(C)CO1` [Compound 3]: the half-inhibitory concentration (IC50) in assay [1] and in assay [2] was less than 50 nM in each case.
Turning to `CC(C)C[C@H](NS(=O)(=O)c1ccsc1)C(=O)N[C@@H](Cc1ccccc1)C(=O)N[C@@H](CC(C)C)C(=O)[C@@]1(C)CO1` [Compound 14], the IC50 in assay [1] and in assay [2] was less than 50 nM each time.

(Values after US8088741B2, “Compounds for enzyme inhibition” (Onyx Therapeutics, Inc., priority 2004, dated 2012).)
